The results in this text go back to PMC12362433, “Systematic Determination of the Impact of Structural Edits on Peptide Accumulation into Mycobacteria” (ACS Chemical Biology, 2025).

Series [1] can be described thus: Serum stability assay in mouse serum. The class given is in vitro ADME. The method, then:
Serum stability assay. Time course degradation in mouse serum was evaluated for peptides Lin0, Cyc0, Nmet0 and Nmet9. Compounds were incubated in mouse serum at a concentration of 1.0 mM to a total of 200 μL at 37 °C. At each time point (0, 15, 30, 60 min), 4 0 μL of the solution was aliquoted and diluted in a 1:1 solution o f H2O/CH3CN (101 μL) containing trichloroacetic acid (9 μL) and 100 μM of internal standard Fm o c -L-phenylalanine. This mixture was incubated in ice for 5 min to precipitate serum proteins.
The samples were then centrifuged at 21,000×g for 5 min. 140 μL of the supernatant was then transferred to a filter tube and centrifuged again at 21,000× g for 5 min to filter. 110 μL of the filtrate was then analyzed using Phenomenex Luna 5 µm C8(2) on RP-HPLC; gradient elution in H2O/CH 3CN with 0.1% TFA at 1 mL/min. Peptide identity was confirmed via peak collection and subsequent matrix-assisted laser desorption ionization time-of-flight (MALDI-TOF) mass spectroscopy (Shimadzu 8020). To eliminate variations in the overall signal intensity, area under the curve (AUC) for the peptides of interest at each time point was normalized to the AUC of the internal standard Fm o c -L-phenylalanine, the concentration of which was predetermined. These normalized AUC values were then further normalized to the “0 min” time point which was set to 100%. […]

The subject of a further series is Msm cells. The settings on record: 25 μM TetD labeling; microscopy and EtBr accumulation/efflux.
A further series deals with Msm. The class given is cell-based, Mycobacterium smegmatis. The settings on record: against Msm; for MIC value: 48 h, three biological replicates. Here is the method:
Minimum inhibitory concentration (MIC) assay. Msm cells were inoculated from the glycerol stock to the according media and grown for 24 hours until 0.5- 0.6 OD. Testing peptides were dissolved in the 7H9 growth media mentioned above and made into serial dilutions from 128 µM. 200 µL of each concentration was added to a deep well 96-well plate – with each concentration added in triplicates. The cells were diluted […] to OD of around 0.05 with fresh 7H9 growth media. […] of diluted cells were added to the deep well plate each well and mixed well with the peptide solution. The plate was covered by an adhesive porous film and incubated at 37 °C with shaking at 250 rpm for 48 h. The contents from each well were then transferred to a flat-bottom 96-well plate for MIC value determination. MIC values were determined both visually and readings of OD (wells OD < 0.1) from a Biotek Synergy H1 microplate reader at 600 nm.

Bridge positions count the residues as written; N and C are the ends. Square brackets hold non-standard residues; d marks the D form. Peptide text beside a SMILES is read from it. * marks the point of attachment. Lys(N3) = [N-]=[N+]=NCCCC[C@H](N)C(=O)O; Azidoacetyl = [N-]=[N+]=NCC(=O)*; NMeF = CN[C@@H](Cc1ccccc1)C(=O)O; NMeT = CN[C@H](C(=O)O)[C@@H](C)O; NMeL = CN[C@@H](CC(C)C)C(=O)O; dNMeL = CN[C@H](CC(C)C)C(=O)O; NMeK = CN[C@@H](CCCCN)C(=O)O; NMeV = CN[C@H](C(=O)O)C(C)C Where only a bound is given, the exact number is not on record here.

Method for Msm cells: Ethidium bromide (EtBr) whole-cell accumulation assay. To a 96-well plate, 90 µL of
T etD -modified Msm cells were added in triplicate. Next, 5 µL of 1 mM peptide stock
solutions were added to yield a final concentration of 50 µM. The volume in each well was
made up to 100 µL using PBS. To the blank and PBS control wells, 10 µL of PBS was
added at this point. For the blank wells, 90 µL of unlabeled cells were added in triplicate.
The plates were then incubated at 37 °C for the same duration as the corresponding PAC -
MAN assay incubation duration for that library. The cells were centrifuged for 2 min at
3000× g, and the supernatant was discarded. The pellets were then washed with 100 µL
PBST twice and finally resuspended in 100 µL of PBST. 95 µL of these cells were then
transferred to corresponding wells in a 96 -well, black, flat-bottomed plate. To each well,
5 µL of 100 µM EtBr (5 µM final) was added. The fluorescent intensities were measured
by a Biotek Synergy H1 microplate reader 60 m post -treatment with EtBr, with continuous
orbital shaking. Wavelengths: ethidium bromide, excitation 530 nm/emission 590 nm.

As for `CC(=O)N[C@@H](CCCCN=[N+]=[N-])C(=O)N[C@@H](CC(C)C)C(=O)N[C@@H](CO)C(=O)N[C@@H](CCCCN)C(=O)N[C@@H](CO)C(=O)N[C@@H](Cc1ccccc1)C(N)=O` [Lin0] (Ac-[Lys(N3)]LSKSF-NH2), the “time to full degradation in serum” value in series [1] is reported as at most 1 h.

With `CC(C)C[C@@H](C(=O)N(C)[C@@H](CCCCN)C(=O)N(C)[C@@H](CC(C)C)C(=O)N(C)[C@@H](Cc1ccccc1)C(N)=O)N(C)C(=O)[C@H](CCCCN)N(C)C(=O)CN=[N+]=[N-]` [Nmet5] (Azidoacetyl-[NMeK][NMeL][NMeK][NMeL][NMeF]-NH2), the “serum stability (in words)” value in series [1] (mouse serum, 37 °C, over 1 h) is “considerably greater serum stability than peptide Nmet0”.

For the compound `C[C@H](NC(=O)CCC(=O)N1Cc2ccccc2C#Cc2ccccc21)C(=O)N[C@H](CCC(=O)N[C@@H](CCCCN)C(=O)N[C@H](C)C(=O)O)C(N)=O` [TetD], in the series on Msm cells, the “cell morphology and cell envelope integrity after labeling” value is “no significant changes in cell morphology or cell envelope integrity”. Consider `CC(C)C[C@@H]1NC(=O)[C@@H]2CCCN2C(=O)[C@H](CC(C)C)NC(=O)[C@@H](NC(=O)[C@@H]2CCCN2C(=O)[C@@H](NC(=O)CN=[N+]=[N-])C(C)C)[C@@H](C)OC(=O)CNC(=O)[C@@H](CC(C)C)NC(=O)[C@@H]2CCCN2C(=O)[C@H](C(C)C)NC1=O` [grisCyc] (Azidoacetyl-VPTLPLVP[dL]G; ester 3-C), for which the MIC value in the series with Msm is over 64 µM.

In the case of `CC(C)C[C@H](NC(=O)[C@@H]1CCCN1C(=O)[C@H](CC(C)C)NC(=O)[C@@H](NC(=O)[C@@H]1CCCN1C(=O)[C@@H](NC(=O)CN=[N+]=[N-])C(C)C)[C@@H](C)O)C(=O)N[C@H](C(=O)N1CCC[C@H]1C(=O)N[C@H](CC(C)C)C(=O)NCC(N)=O)C(C)C` [grisLin] (Azidoacetyl-VPTLPLVP[dL]G-NH2), the MIC value in the series with Msm was over 64 µM.

Take `CC(C)C[C@@H]1NC(=O)[C@@H]2CCCN2C(=O)[C@H](CC(C)C)NC(=O)[C@@H](N(C)C(=O)[C@@H]2CCCN2C(=O)[C@H](C(C)C)N(C)C(=O)CN=[N+]=[N-])[C@@H](C)OC(=O)CNC(=O)[C@@H](CC(C)C)N(C)C(=O)[C@@H]2CCCN2C(=O)[C@H](C(C)C)N(C)C1=O` [grisMeCyc] (Azidoacetyl-[NMeV]P[NMeT]LPL[NMeV]P[dNMeL]G; ester 3-C): the MIC value in the series with Msm amounted to 2 µM. For the compound `CC(C)C[C@H](NC(=O)[C@@H]1CCCN1C(=O)[C@H](CC(C)C)NC(=O)[C@H]([C@@H](C)O)N(C)C(=O)[C@@H]1CCCN1C(=O)[C@H](C(C)C)N(C)C(=O)CN=[N+]=[N-])C(=O)N(C)[C@H](C(=O)N1CCC[C@H]1C(=O)N(C)[C@H](CC(C)C)C(=O)NCC(N)=O)C(C)C` [grisMeLin] (Azidoacetyl-[NMeV]P[NMeT]LPL[NMeV]P[dNMeL]G-NH2), the MIC value with Msm is over 64 µM. Further, the “fold increase in MIC value relative to grisMeCyc” value in the series with Msm (loss of macrocyclization) is over 32 fold.
